# From patent US20190225652A1, “GENERATION OF PEPTIDES” (Hexima Limited, priority 2015, published 2019)
# Assays:
# Assay type in all cases: biochemical, Oldenlandia affinis
# rOaAEP1b [1] = assay: Inhibition assay: rOaAEP1b activity against wt IQF peptide; conditions: 40 minutes preincubation, rOaAEP1b 4.4 μg mL^−1, IQF peptide 11 μM, 90 minutes
# Procedure: FIG. 16 is a graphical representation of rOaAEP1b activity against the IQF peptide Abz-STRNGLPS-Y(3NO2) [SEQ ID NO:21] in the presence of protease inhibitors. rOaAEP1b (4.4 μg mL^−1 total protein) was allowed to cleave the IQF peptide (11 μM) for 90 minutes. Enzyme activity against the IQF peptide in the presence of either the Ac-YVAD-CHO or Ac-STRN-CHO inhibitors is reported relative to a no inhibitor control at the 90 minutes time point.
# To assay activity of recombinant AEPs (rOaAEP1b, rOaAEP3, rOaAEP4 or rOaAEP5) against both internally-quenched and other fluorescent peptides, substrate and enzyme were diluted as appropriate in activity buffer (50 mM sodium acetate, 50 mM NaCl, 1 mM EDTA, 0.5 μM TCEP, pH 5). […] The change in fluorescence intensity over time was monitored on a SpectraMax M2 (Molecular Devices) using excitation/emission wavelengths of 320/420 nm (IQF peptides) or 360/460 nm (other fluorescent peptides).
# To investigate the impact of inhibitors on enzyme activity against the wild type IQF peptide, Abz-STRNGLPS-Y(3NO2), rOaAEP1b (4.4 μg mL^−1 total protein) was incubated with Ac-YVAD-CHO (500 μM) or Ac-STRN-CHO (409 μM) for 40 minutes prior to addition to the substrate (11 μM). Enzyme activity against the wt IQF peptide was then assessed as described above.
# [2] = system: rOaAEP1b, rOaAEP3, rOaAEP4 and rOaAEP5; assay: Intermolecular ligation assay with recombinant AEPs; conditions: target 140 μM
# Procedure: Target peptides (140 μM) were incubated with a ligation partner peptide (700 μM) and a recombinant AEP (rOaAEP1b, rOaAEP3, rOaAEP4 or rOaAEP5 at 19.7 μg mL^−1 total protein) in activity buffer (50 mM sodium acetate, 50 mM NaCl, 1 mM EDTA, 0.5 μM TCEP, pH 5). The reaction was allowed to proceed for up to 22 hours at room temperature and was analysed by MALDI MS or electrospray ionisation (ESI) mass spectrometry as appropriate.
# (§1) Cyclization or inter-molecular ligation of linear target peptides was monitored by MALDI or ESI MS. In both cases, the reaction mixture (5-50 μL) was de-salted using C18 zip tips (Millipore) and eluted in 4 μL 50-75% v/v acetonitrile, 0.1% v/v trifluoroacetic acid (TFA).
# (§2) For MALDI MS, a saturated MALDI matrix solution (α-cyano-4-hyroxycinnamic acid, CHCA, Bruker) prepared in 95% v/v acetonitrile, 0.1% v/v TFA was diluted 1:22 such that the final matrix solution comprised 90% v/v acetonitrile, 0.1% v/v TFA and 1 mM NH4H2PO4. Eluted samples were mixed 1:4 with the MALDI matrix, spotted onto a MALDI plate and analyzed by an Ultraflex III TOF/TOF (Bruker) in positive reflector mode. Data were analyzed using the flexAnalysis program (Bruker).
# (§3) For ESI MS, 96 μl of 75% v/v acetonitrile, 01% v/v TFA was added to the de-salted sample. The sample was then injected into a MicroTOF Q (Bruker) and data was collected in positive ionisation mode. The mass of ligated or cyclized product was determined by charge deconvolution using the Compass DataAnalysis program (Bruker).
# To investigate the ability of recombinantly produced AEPs to perform inter-molecular ligation (as well as the intra-molecular ligation required to produce backbone-cyclized peptides), target peptides were incubated with ligation partner peptides as well as active enzyme (FIG. 11). The appearance of new linear peptides were tracked. […]
# [3] = system: rOaAEP1b, rOaAEP3, rOaAEP4 and rOaAEP5; assay: Cyclization assay with rOaAEP1b, rOaAEP3, rOaAEP4 and rOaAEP5 (MALDI/ESI MS)
# Procedure: Linear target peptides (280 μM, unless otherwise indicated) were incubated with rOaAEP1b, rOaAEP3, rOaAEP4 or rOaAEP5 (total protein concentration as indicated in the description of figures) in activity buffer (50 mM sodium acetate, 50 mM NaCl, 1 mM ethylenediaminetetraacetic acid [EDTA], 0.5 μM Tris(2-carboxyethyl)phosphine hydrochloride [TCEP], pH 5). The reaction was allowed to proceed for up to 22 hours at room temperature and was analysed by matrix-assisted laser desorption/ionization mass spectrometry (MALDI MS), high performance liquid chromatography (HPLC) or nuclear magnetic resonance (NMR) as appropriate.
# as §1, §2, §3
# The ability of activated AEPs (rOaAEP1b, rOaAEP3, rOaAEP4 and rOaAEP5) to cyclize peptide substrates structurally unrelated to cyclotides was tested in the cyclization assay described in the Materials and Methods. The anti-malarial peptide R1 (Harris et al. (2009) J Biol Chem 284(14):9361-9371; Harris et al. (2005) Infect Immun 73(10):6981-6989); Bac2A, a linear derivative of the bovine peptide bactenecin (Wu and Hancock (1999) Antimicrob Agents Ch 43:1274-1276); and the anti-fungal peptide EcAMP1 (Nolde et al. (2011) J Biol Chem 286(28):25145-25153) were produced with additional AEP recognition residues and used as the substrates.
# To investigate the sequence requirements for in vitro cyclization, R1 was used as a model peptide. The recognition residues added to this model peptide were sequentially trimmed to determine the minimal requirements for AEP-mediated cyclization. The N- and C-terminal recognition residues were also substituted with alternate amino acids to determine if particular classes of residues were preferred for cyclization by these recombinant AEPs. The ability of activated AEPs (rOaAEP1b, rOaAEP3, rOaAEP4 and rOaAEP5) to cyclize the R1 peptide with varied flanking sequences was then tested in the cyclization assay described in the Materials and Methods (FIG. 10; Table 3).
# rOaAEP1b [4] = assay: Kinetics of rOaAEP1b-mediated cyclisation of wt kB1 precursor (RP-HPLC, Michaelis-Menten); conditions: substrate 75-250 μM, room temperature, 5 min, enzyme 19.7 μg ml^−1 total protein, ±s.e.m.
# Procedure: FIG. 7 is a graphical representation showing the kinetics of rOaAEP1b-mediated cyclisation. Varying concentrations of substrate (kB1wt precursor) were incubated with enzyme (19.7 μg mL^−1 total protein) for 5 min. The amount of product formed was inferred by monitoring depletion of the precursor by RP-HPLC. […] The kinetic parameters derived from this plot are listed (±SEM).
# To determine the kinetics of rOaAEP1b activity against the wt kB1 precursor (FIG. 1; SEQ ID NO: 11), the substrate was assayed at room temperature at a range of concentrations between 75 and 250 μM in a total volume of 20-160 μl of activity buffer. The total protein concentration of the enzyme preparation added to the kinetic assays was 19.7 μg ml^−1. The reaction was quenched after 5 min with 0.1% TFA and the volume adjusted to 800 μl. A volume of 700 μl was loaded onto a reversed-phase C18 analytical column (Agilent Eclipse C18, 5 μm, 4.6×150 mm) and peptides were separated by HPLC (19 min linear gradient of 12-60% acetonitrile, 0.1% TFA at 1 ml min^−1). The identity of eluted peaks was confirmed using MALDI MS. The area under the curve corresponding to the precursor peptide was quantitated by comparison to a standard curve and initial velocities were calculated by converting this to μmoles product formed. […]
# Target sequence in this assay (as listed by the source): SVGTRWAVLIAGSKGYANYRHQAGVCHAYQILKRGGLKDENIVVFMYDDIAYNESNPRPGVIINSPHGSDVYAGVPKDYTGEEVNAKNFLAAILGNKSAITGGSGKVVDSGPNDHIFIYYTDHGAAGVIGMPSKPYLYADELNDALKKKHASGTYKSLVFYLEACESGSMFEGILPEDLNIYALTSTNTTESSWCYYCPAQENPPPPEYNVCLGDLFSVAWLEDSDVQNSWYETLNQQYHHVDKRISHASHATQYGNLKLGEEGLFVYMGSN
# rOaAEP1b [5] = assay: Cyclization assay with rOaAEP1b (MALDI MS); conditions: MALDI MS
# Target sequence in this assay (as listed by the source): as above
substance,measurement,setting,value
Ac-STRN-aldehyde,efficacy of inhibitor against rOaAEP1b,rOaAEP1b [1]; inhibitor 409 μM,limited efficacy
Ac-YVAD-CHO,efficacy of inhibitor against rOaAEP1b,rOaAEP1b [1]; inhibitor 500 μM,limited efficacy
"GLP-NaD1-TRNGLP: plant defensin NaD1 with AEP recognition residues at N- and C-termini, expressed in Pichia pastoris (GLPRECKTESNTFPGICITKPPCRKACISEKFTDGHCSKILRRCLCTKPCTRNGLP; Target peptides)","inter-molecular ligation, C-terminal labelling","[2]; ligation partner GLPVSGE or PLPVSGE 700 μM, enzymes 19.7 μg mL^−1, 6-22 h, ESI-MS","new, linear, peptides were detected"
same,AEP-mediated backbone cyclization of modified NaD1,"[3]; 140 μM, no ligation partner, ESI-MS",no evidence of backbone-cyclization
"GLVFAEFLPLFSKFGSRMHILKGHV (R1) [SEQ ID NO:61, R1 peptide derivative]","inter-molecular ligation, N-terminal labelling","[2]; ligation partner biotin-TRNGL 700 μM, enzymes 19.7 μg mL^−1, 6 h, MALDI-MS",created a new linear peptide that incorporated an N-terminal biotin
same,cyclization of linear precursor peptide by recombinant AEPs,"[3]; peptides with added AEP recognition residues, 280 μM, enzymes 19.7 μg mL^−1 total protein, MS",not itself an AEP substrate
wt kB1 precursor: synthetic linear kalata B1 precursor carrying the native C-terminal pro-hepta-peptide (GLPSLAA) (GLPVCGETCVGGTCNTPGCTCSWPVCTRNGLPSLAA; kB1wt),kcat,"rOaAEP1b [4]; conservative estimate (32 kDa, total protein taken as active enzyme)",0.53 (±0.1) s^−1
same,Km,rOaAEP1b [4],212 µM
same,processing/cyclization by rOaAEP1b,rOaAEP1b [5],"consistent with the expected mass of mature, cyclic kB1"
